pKd: −log10 of the molar value. Numbered stars: 1 amine (or outer) side, 2 acyl side, 3 side chain; on linkers, the order of the positions; unused ones are H or OH. Bridge positions count the residues as written; N and C are the ends. Square brackets hold non-standard residues; d marks the D form. Peptide text beside a SMILES is read from it. TATA = O=C(CC[*:1])N1CN(C(=O)CC[*:2])CN(C(=O)CC[*:3])C1; Dopa = N[C@@H](Cc1ccc(O)c(O)c1)C(=O)O; dCha = N[C@H](CC1CCCCC1)C(=O)O; Cba = N[C@@H](CC1CCC1)C(=O)O; Pen = CC(C)(S)[C@H](N)C(=O)O; dNle = CCCC[C@@H](N)C(=O)O; dNva = CCC[C@@H](N)C(=O)O
Each compound was assayed against T1, Fc-tagged human NKp46 (Homo sapiens, UniProt O76036) (assay: NKp46 SPR assay (Method 1 and/or Method 2)). Settings: SPR Method 1 and/or Method 2, Table 3B.
T1 construct: purchased ACROBiosystems NC1-H5257
T1 sequence (O76036 22-304): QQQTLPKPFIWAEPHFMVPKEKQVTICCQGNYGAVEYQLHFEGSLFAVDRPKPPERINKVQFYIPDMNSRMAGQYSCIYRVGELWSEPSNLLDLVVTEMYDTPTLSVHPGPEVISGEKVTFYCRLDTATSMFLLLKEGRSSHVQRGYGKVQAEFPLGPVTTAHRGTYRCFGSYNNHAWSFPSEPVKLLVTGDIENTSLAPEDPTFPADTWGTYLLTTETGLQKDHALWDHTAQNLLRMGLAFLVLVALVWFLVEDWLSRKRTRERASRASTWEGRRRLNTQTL
Type: binding
Procedure: SPR experiments were performed to determine ka (M^−1s^−1), kd (s^−1), KD (nM) values (where measurable) of various bicyclic peptides to immobilised NKp46.
For analysis of peptide binding to NKp46, a Biacore 3000 instrument was used with a Cytiva Streptavidin chip. Capture of the protein (recombinant human NKp46-Fc fusion biotinylated via Avi-tag) was carried out at 25° C. with HBS-N (10 mM HEPES, 0.15 M NaCl, pH 7.4) as the running buffer and biotinylated NKp46 was captured to a level of 400-800 RU using a dilution of protein to 0.2 μM in buffer. Buffer was then changed to PBS/0.05% Tween 20 and a dilution series of the peptides was prepared in this buffer with a final DMSO concentration of 0.5% with a top peptide concentration of 100 nM-5000 nM and 6 further 2 or 3-fold dilutions. The SPR analysis was run at 25° C. and a flow rate of 50 μl/min with 60 seconds association and 200-400 seconds dissociation time. Data were corrected for DMSO excluded volume effects. All data were double-referenced for blank injections and reference surface using standard processing procedures and data processing and kinetic fitting were performed using Scrubber software, version 2.0c (BioLogic Software). Data were fitted using simple 1:1 binding model allowing for mass transport effects where appropriate.
Peptides were tested against Fc-tagged human NKp46 (ACROBiosystems, cat no. NC1-H5257).
For analysis of peptide binding, a Biacore 8k+ instrument was used with a CM5 chip (Cytiva). All experiments were carried out at 25° C. Anti-human IgG (Fc) antibody (Cytiva) was immobilized on all flow cells by standard amine coupling chemistry. The running buffer was HBS-N(Cytiva, 10 mM HEPES, 0.15 M NaCl, pH 7.4) and the flow rate was 10 μL/min. The carboxymethyl dextran surface was activated with a 1:1 ratio of 0.4 M 1-ethyl-3-(3-dimethylaminopropyl) carbodiimide hydrochloride (EDC)/0.1 M N-hydroxy succinimide (NHS) (Cytiva) for 420s. […] Residual activated groups were blocked with a 420 s injection of 1 M ethanolamine (pH 8.5). The final surface density was 3000-5000 RU. Fc-tagged human NKp46 was diluted to 0.1 μM in HBS-N and was captured on flow cell 2 only of the sensor chip at a flow rate of 10 μL/min to 500-1000 RU. The buffer was then changed to PBS-P+(Cytiva) supplemented with 2% DMSO. […] The flow rate was 50 μL/min with 60 s association and 400 s dissociation. Data were corrected for DMSO volume exclusion effects. All data were double-referenced against blank injections and reference surface response using standard processing procedures. Data processing and kinetic fitting was performed using Biacore Insight Evaluation Software with Extended Screening and Characterization Extension (Cytiva). Data were fitted using steady state affinity 1:1 binding model to determine KD. Data were fitted using kinetic 1:1 binding model to determine kinetic constants where appropriate.

Row | Compound | pKd
1 | CCC[C@H]1NC(=O)[C@@H]2CSCCC(=O)N3CN(CN(C3)C(=O)CCSC[C@H](NC(C)=O)C(=O)N[C@@H](Cc3ccc(O)cc3)C(=O)N[C@@H](CC3CCC3)C(=O)N3CCC[C@H]3C(=O)N[C@@H](CC(=O)O)C(=O)N[C@@H](Cc3ccc(O)cc3)C(=O)N[C@@H](CC(C)C)C(=O)N2)C(=O)CCSC[C@@H](C(N)=O)NC(=O)[C@H](Cc2ccc(O)cc2)NC(=O)[C@H](CCC(=O)O)NC(=O)[C@H](CC(=O)O)NC1=O [BCY18444, Ac-(SEQ ID NO: 145)] (Ac-CY[Cba]PDYLC[dNva]DEYC-NH2; linker 1-8-13 via TATA) | 8.41
2 | CC(=O)N[C@H]1CSCCC(=O)N2CN3CN(C2)C(=O)CCSC[C@H](NC(=O)[C@H](CC(C)C)NC(=O)[C@H](Cc2ccc(O)cc2)NC(=O)[C@H](CC(=O)O)NC(=O)[C@@H]2CCCN2C(=O)[C@H](CC2CCC2)NC(=O)[C@H](Cc2ccc(O)cc2)NC1=O)C(=O)N[C@H](CC1CCCCC1)C(=O)N[C@@H](CC(=O)O)C(=O)N[C@@H](CCC(=O)O)C(=O)N[C@@H](Cc1ccc(O)cc1)C(=O)N[C@H](C(N)=O)CSCCC3=O [BCY19683, Ac-(SEQ ID NO: 147)] (Ac-CY[Cba]PDYLC[dCha]DEYC-NH2; linker 1-8-13 via TATA; C-terminus assumed) | 8.00
3 | CCCC[C@H]1NC(=O)[C@@H]2CSCCC(=O)N3CN(CN(C3)C(=O)CCSC[C@H](NC(C)=O)C(=O)N[C@@H](Cc3ccc(O)cc3)C(=O)N[C@@H](CC3CCC3)C(=O)N3CCC[C@H]3C(=O)N[C@@H](CC(=O)O)C(=O)N[C@@H](Cc3ccc(O)cc3)C(=O)N[C@@H](CC(C)C)C(=O)N2)C(=O)CCSC[C@@H](C(N)=O)NC(=O)[C@H](Cc2ccc(O)cc2)NC(=O)[C@H](CCC(=O)O)NC(=O)[C@H](CC(=O)O)NC1=O [BCY19685, Ac-(SEQ ID NO: 149)] (Ac-CY[Cba]PDYLC[dNle]DEYC-NH2; linker 1-8-13 via TATA) | 8.00
4 | CC(=O)N[C@H]1CSCCC(=O)N2CN3CN(C2)C(=O)CCSC[C@H](NC(=O)[C@H](CC(C)C)NC(=O)[C@H](Cc2ccc(O)c(O)c2)NC(=O)[C@H](CC(=O)O)NC(=O)[C@@H]2CCCN2C(=O)[C@H](CC2CCC2)NC(=O)[C@H](Cc2ccc(O)cc2)NC1=O)C(=O)N[C@H](C)C(=O)N[C@@H](CC(=O)O)C(=O)N[C@@H](CCC(=O)O)C(=O)N[C@@H](Cc1ccc(O)cc1)C(=O)N[C@H](C(N)=O)CSCCC3=O [BCY19686, Ac-(SEQ ID NO: 150)] (Ac-CY[Cba]PD[Dopa]LC[dA]DEYC-NH2; linker 1-8-13 via TATA; C-terminus assumed) | 7.36
5 | CC(=O)N[C@@H]1C(=O)N[C@@H](Cc2ccc(O)cc2)C(=O)N[C@@H](CC2CCC2)C(=O)N2CCC[C@H]2C(=O)N[C@@H](CC(=O)O)C(=O)N[C@@H](Cc2ccc(O)cc2)C(=O)N[C@@H](CC(C)C)C(=O)N[C@H]2CSCCC(=O)N3CN(CN(C3)C(=O)CCSC1(C)C)C(=O)CCSC[C@@H](C(N)=O)NC(=O)[C@H](Cc1ccc(O)cc1)NC(=O)[C@H](CCC(=O)O)NC(=O)[C@H](CC(=O)O)NC(=O)[C@@H](C)NC2=O [BCY19689, Ac-(SEQ ID NO: 153)] (Ac-[Pen]Y[Cba]PDYLC[dA]DEYC-NH2; linker 1-8-13 via TATA; C-terminus assumed) | 7.80
6 | CC(=O)N[C@H]1CSCCC(=O)N2CN3CN(C2)C(=O)CCSC(C)(C)[C@@H](C(N)=O)NC(=O)[C@H](Cc2ccc(O)cc2)NC(=O)[C@H](CCC(=O)O)NC(=O)[C@H](CC(=O)O)NC(=O)[C@@H](C)NC(=O)[C@H](CSCCC3=O)NC(=O)[C@H](CC(C)C)NC(=O)[C@H](Cc2ccc(O)cc2)NC(=O)[C@H](CC(=O)O)NC(=O)[C@@H]2CCCN2C(=O)[C@H](CC2CCC2)NC(=O)[C@H](Cc2ccc(O)cc2)NC1=O [BCY19691, Ac-(SEQ ID NO: 155)] (Ac-CY[Cba]PDYLC[dA]DEY[Pen]-NH2; linker 1-8-13 via TATA) | < 6.30

Further lines, results first:

Row | pKd | Compound
7 | 5.82 | CSCC[C@@H]1NC(=O)[C@@H]2CSCCC(=O)N3CN(CN(C3)C(=O)CCSC[C@@H](C(=O)N[C@@H](C)C(N)=O)NC(=O)[C@H](C(C)C)NC(=O)[C@H](CCCCN)NC(=O)CNC(=O)[C@H]([C@@H](C)O)NC(=O)[C@H](CCC(=O)O)NC1=O)C(=O)CCSC[C@H](NC(=O)[C@H](C)N)C(=O)N[C@@H](CC(N)=O)C(=O)N[C@@H](CC(C)C)C(=O)N[C@@H](CCC(N)=O)C(=O)N[C@@H](C)C(=O)N1CCC[C@H]1C(=O)N2 [BCY18316, A-(SEQ ID NO: 78)-A] (H-ACNLQAPCMETGKVCA-NH2; linker 2-8-15 via TATA; C-terminus assumed)
8 | 5.72 | CSCC[C@@H]1NC(=O)[C@@H]2CSCCC(=O)N3CN(CN(C3)C(=O)CCSC[C@@H](C(=O)N[C@@H](C)C(N)=O)NC(=O)[C@H](C(C)C)NC(=O)[C@H](CCCCN)NC(=O)CNC(=O)[C@H]([C@@H](C)O)NC(=O)[C@H](Cc3ccc(O)cc3)NC1=O)C(=O)CCSC[C@H](NC(=O)[C@H](C)N)C(=O)N[C@@H](CC(N)=O)C(=O)N[C@@H](CC(C)C)C(=O)N[C@@H](CCC(N)=O)C(=O)N[C@@H](C)C(=O)N1CCC[C@H]1C(=O)N2 [BCY18318, A-(SEQ ID NO: 80)-A] (H-ACNLQAPCMYTGKVCA-NH2; linker 2-8-15 via TATA)
9 | 7.36 | CC(=O)N[C@H]1CSCCC(=O)N2CN3CN(C2)C(=O)CCSC[C@H](NC(=O)[C@H](CC(C)C)NC(=O)[C@H](Cc2ccc(O)cc2)NC(=O)[C@H](CC(=O)O)NC(=O)[C@@H]2CCCN2C(=O)[C@H](CC2CCC2)NC(=O)[C@H](CCO)NC1=O)C(=O)N[C@H](C)C(=O)N[C@@H](CC(=O)O)C(=O)N[C@@H](CCC(=O)O)C(=O)N[C@@H](Cc1ccc(O)cc1)C(=O)N[C@H](C(N)=O)CSCCC3=O [BCY18434, Ac-(SEQ ID NO: 137)]
10 | < 6.30 | CC(=O)N[C@H]1CSCCC(=O)N2CN3CN(C2)C(=O)CCSC[C@H](C(N)=O)NC(=O)[C@H](Cc2ccc(O)cc2)NC(=O)[C@H](CCC(=O)O)NC(=O)[C@H](CC(=O)O)NC(=O)[C@@H](C)NC(=O)[C@H](CSCCC3=O)NC(=O)[C@H](CC(C)C)NC(=O)[C@H](Cc2ccc(O)cc2)NC(=O)[C@H](CC(=O)O)NC(=O)[C@@H]2CCCN2C(=O)[C@H](CC2CCC2)NC(=O)[C@H](Cc2ccc(O)cc2)NC1=O [BCY19692, Ac-(SEQ ID NO: 156)] (Ac-CY[Cba]PDYLC[dA]DEY[dC]-NH2; linker 1-8-13 via TATA)
11 | 7.77 | CC(=O)N[C@@H]1CSCCC(=O)N2CN3CN(C2)C(=O)CCSC[C@H](NC(=O)[C@H](CC(C)C)NC(=O)[C@H](Cc2ccc(O)cc2)NC(=O)[C@H](CC(=O)O)NC(=O)[C@@H]2CCCN2C(=O)[C@H](CC2CCC2)NC(=O)[C@H](Cc2ccc(O)cc2)NC1=O)C(=O)N[C@H](C)C(=O)N[C@@H](CC(=O)O)C(=O)N[C@@H](CCC(=O)O)C(=O)N[C@@H](Cc1ccc(O)cc1)C(=O)N[C@H](C(N)=O)CSCCC3=O [BCY19693, Ac-(SEQ ID NO: 157)] (Ac-[dC]Y[Cba]PDYLC[dA]DEYC-NH2; linker 1-8-13 via TATA; C-terminus assumed)
12 | 5.60 | CSCC[C@@H]1NC(=O)[C@@H]2CSCCC(=O)N3CN(CN(C3)C(=O)CCSC[C@H](N)C(=O)N[C@@H](CC(N)=O)C(=O)N[C@@H](CC(C)C)C(=O)N[C@@H](CCC(N)=O)C(=O)N[C@@H](C)C(=O)N3CCC[C@H]3C(=O)N2)C(=O)CCSC[C@@H](C(=O)N[C@@H](C)C(N)=O)NC(=O)[C@H](C(C)C)NC(=O)[C@H](CCCCN)NC(=O)CNC(=O)[C@H]([C@@H](C)O)NC(=O)[C@H](CC(C)C)NC1=O [BCY19694, (SEQ ID NO: 4)-A] (H-CNLQAPCMLTGKVCA-NH2; linker 1-7-14 via TATA)
